inhibition, IC50 and GI50 data for 5 molecules are collected here from ChEMBL document CHEMBL3124925, “Further constituents of Galianthe thalictroides (Rubiaceae) and inhibition of DNA topoisomerases I and IIα by its cytotoxic β-carboline alkaloids” (Bioorg Med Chem Lett, 2014).

Converted amounts (≈) assume the structure as drawn. The source made the active and inactive calls. The calls are words filed in the database; no cut-off is given here.

The target of assay [1] is DNA topoisomerase 2-alpha (Homo sapiens) (UniProt P11388). Description: Inhibition of recombinant human top2 alpha-mediated kDNA decatenation compound added post enzyme-DNA incubation by agarose gel electrophoresis in presence of DTT.
The target is the same in assay [2]. Put plainly: Inhibition of recombinant human top2 alpha-mediated kDNA decatenation compound added post enzyme-DNA incubation by agarose gel electrophoresis.
Assay [3] has the same target. Description: Inhibition of recombinant human top2 alpha-mediated kDNA decatenation at 25 uM after 30 mins by agarose gel electrophoresis.
In assay [4] the target is T1, DNA topoisomerase 1 (Homo sapiens) (UniProt P11387).
T1 sequence (whole entry): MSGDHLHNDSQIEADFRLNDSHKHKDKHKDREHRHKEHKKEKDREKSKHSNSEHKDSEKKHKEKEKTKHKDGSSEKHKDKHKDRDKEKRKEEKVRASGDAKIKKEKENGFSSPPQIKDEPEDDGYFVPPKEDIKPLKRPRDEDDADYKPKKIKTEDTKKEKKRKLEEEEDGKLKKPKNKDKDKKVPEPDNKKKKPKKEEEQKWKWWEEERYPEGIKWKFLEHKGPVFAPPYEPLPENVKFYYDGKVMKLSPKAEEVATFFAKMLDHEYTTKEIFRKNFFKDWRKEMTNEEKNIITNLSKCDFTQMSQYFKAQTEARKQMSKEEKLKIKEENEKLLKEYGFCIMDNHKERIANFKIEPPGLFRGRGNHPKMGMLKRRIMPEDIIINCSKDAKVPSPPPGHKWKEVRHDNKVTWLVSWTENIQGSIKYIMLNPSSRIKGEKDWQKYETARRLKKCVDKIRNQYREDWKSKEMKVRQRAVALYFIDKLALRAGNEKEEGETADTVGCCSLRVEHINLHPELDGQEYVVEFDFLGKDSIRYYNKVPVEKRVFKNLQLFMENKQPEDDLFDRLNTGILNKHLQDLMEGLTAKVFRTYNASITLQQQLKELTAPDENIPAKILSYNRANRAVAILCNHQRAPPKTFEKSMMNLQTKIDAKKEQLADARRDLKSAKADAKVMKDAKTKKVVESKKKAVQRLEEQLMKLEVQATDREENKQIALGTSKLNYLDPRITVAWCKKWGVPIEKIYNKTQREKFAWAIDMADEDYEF
Description: Inhibition of recombinant human DNA top1-mediated relaxation of pBR322 plasmid at 25 uM after 30 mins by agarose gel electrophoresis.

Assay [5] deals with UACC-62. Put plainly: Cytotoxicity against human UACC62 cells assessed as growth inhibition by SRB assay. In kind it is functional, cell-based. (In general: In SRB staining, fixed cells bind dye roughly in proportion to their protein.)
Assay [6] deals with MCF7. Put plainly: Cytotoxicity against human MCF7 cells assessed as growth inhibition by SRB assay. Format: functional, cell-based.
For assay [7], the system named is 786-0. Description: Cytotoxicity against human 786-0 cells assessed as growth inhibition by SRB assay. Format: functional, cell-based.
In assay [8] the target is T1, DNA topoisomerase 1 (Homo sapiens). Put plainly: Inhibition of recombinant human DNA top1-mediated relaxation of pBR322 plasmid at 100 uM after 30 mins by agarose gel electrophoresis.
For assay [9], the system named is B16-F10. Put plainly: Cytotoxicity against mouse B16F10 cells assessed as growth inhibition by SRB assay. In kind it is functional.
Assay [10] addresses DNA topoisomerase 2-alpha (Homo sapiens) (UniProt P11388). Conditions: 100 uM.
Description: Inhibition of recombinant human top2 alpha-mediated kDNA decatenation at 100 uM after 30 mins by agarose gel electrophoresis
For assay [11] the target is unchanged. Put plainly: Inhibition of recombinant human top2 alpha-mediated kDNA decatenation at 1 uM after 30 mins by agarose gel electrophoresis.
Assay [12] has as its target T1, DNA topoisomerase 1 (Homo sapiens). Put plainly: Inhibition of recombinant human DNA top1-mediated relaxation of pBR322 plasmid at 1 uM after 30 mins by agarose gel electrophoresis.

DNA topoisomerase 2-alpha (Homo sapiens), sequence (P11388 whole entry): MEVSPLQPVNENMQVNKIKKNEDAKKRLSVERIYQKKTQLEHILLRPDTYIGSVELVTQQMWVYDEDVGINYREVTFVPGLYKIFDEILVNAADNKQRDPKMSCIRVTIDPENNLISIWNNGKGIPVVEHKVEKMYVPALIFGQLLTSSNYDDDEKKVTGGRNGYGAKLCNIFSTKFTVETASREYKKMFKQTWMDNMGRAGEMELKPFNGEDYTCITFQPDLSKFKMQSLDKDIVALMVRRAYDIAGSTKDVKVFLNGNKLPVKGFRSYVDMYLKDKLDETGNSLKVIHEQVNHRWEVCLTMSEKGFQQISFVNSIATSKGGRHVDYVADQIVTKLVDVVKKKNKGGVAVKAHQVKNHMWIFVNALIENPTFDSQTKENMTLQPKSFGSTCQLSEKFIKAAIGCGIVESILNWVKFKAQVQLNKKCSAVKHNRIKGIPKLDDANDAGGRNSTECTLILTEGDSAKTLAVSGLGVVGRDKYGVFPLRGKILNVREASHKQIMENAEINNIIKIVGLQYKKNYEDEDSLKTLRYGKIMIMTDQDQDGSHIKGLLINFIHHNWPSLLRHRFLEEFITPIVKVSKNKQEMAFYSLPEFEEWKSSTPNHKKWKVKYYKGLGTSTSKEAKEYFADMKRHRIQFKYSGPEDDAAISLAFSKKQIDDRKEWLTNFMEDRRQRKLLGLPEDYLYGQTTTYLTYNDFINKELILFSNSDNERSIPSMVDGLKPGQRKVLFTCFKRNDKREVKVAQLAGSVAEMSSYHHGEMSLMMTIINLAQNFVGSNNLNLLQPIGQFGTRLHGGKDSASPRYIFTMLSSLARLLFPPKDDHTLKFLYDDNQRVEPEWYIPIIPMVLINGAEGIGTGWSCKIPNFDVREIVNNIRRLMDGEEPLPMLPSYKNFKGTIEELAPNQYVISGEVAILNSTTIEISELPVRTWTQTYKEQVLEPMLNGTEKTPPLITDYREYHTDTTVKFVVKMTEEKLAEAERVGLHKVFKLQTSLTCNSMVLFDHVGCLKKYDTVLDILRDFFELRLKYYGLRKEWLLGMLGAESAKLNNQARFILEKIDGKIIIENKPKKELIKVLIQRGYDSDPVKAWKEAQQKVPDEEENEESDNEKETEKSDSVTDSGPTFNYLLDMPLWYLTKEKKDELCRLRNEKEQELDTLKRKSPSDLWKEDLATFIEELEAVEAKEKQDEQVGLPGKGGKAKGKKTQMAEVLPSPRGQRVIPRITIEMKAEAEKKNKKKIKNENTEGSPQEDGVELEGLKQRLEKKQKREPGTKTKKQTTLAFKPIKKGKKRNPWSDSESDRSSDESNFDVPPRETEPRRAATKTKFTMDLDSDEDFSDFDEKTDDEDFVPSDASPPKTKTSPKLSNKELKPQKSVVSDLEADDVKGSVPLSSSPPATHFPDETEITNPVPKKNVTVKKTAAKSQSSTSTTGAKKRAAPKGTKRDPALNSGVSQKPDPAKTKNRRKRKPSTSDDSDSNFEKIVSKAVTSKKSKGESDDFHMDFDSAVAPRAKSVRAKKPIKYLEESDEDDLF

As to `COc1cccc2[nH]c3c([C@H]4[C@H](C(C)(C)O)CC[C@@]4(O)CO)nccc3c12`, the inhibition result in [1], in assay [2], in assay [3] and in [4] was “Active” each time. Moreover, the IC50 came to 1.7 µg/mL (≈ 4.59 µM) in assay [5], 1.8 µg/mL (≈ 4.86 µM) in assay [6] and 0.22 µg/mL (≈ 0.594 µM) in [7].

As to `CCc1c2c(nc3ccc(OC(=O)N4CCC(N5CCCCC5)CC4)cc13)-c1cc3c(c(=O)n1C2)COC(=O)[C@]3(O)CC`, the inhibition entry in assay [8] is “Active”.

In the case of `COc1cccc2c1C(=O)c1c(O)c3c(c(O)c1C2=O)C[C@@](O)(C(=O)CO)C[C@@H]3O[C@H]1C[C@H](N)[C@H](O)[C@H](C)O1.Cl` [DOXORUBICIN HYDROCHLORIDE], the concentration for 50% growth inhibition (GI50) came to 0.22 µg/mL in assay [9], 0.25 µg/mL in assay [5], 0.23 µg/mL in assay [6] and 0.43 µg/mL in [7].

Regarding `COc1cc([C@@H]2c3cc4c(cc3[C@@H](O[C@@H]3O[C@@H]5CO[C@@H](C)O[C@H]5[C@H](O)[C@H]3O)[C@H]3COC(=O)[C@H]23)OCO4)cc(OC)c1O`, the inhibition entry in assay [1], in assay [2] and in assay [10] was “Active” throughout.

On to `COc1cccc2[nH]c3c([C@H]4[C@H](C(C)(C)O)CC[C@]4(C)O)nccc3c12`, for which the inhibition entry in [1], in assay [2], in assay [11] and in assay [12] was “Active” in each case. Moreover, the GI50 in assay [9] worked out at 19.5 µg/mL (≈ 55 µM); in assay [5] it was 2.5 µg/mL (≈ 7.05 µM); in assay [6] it was 3 µg/mL (≈ 8.46 µM); in [7] it was 3 µg/mL (≈ 8.46 µM).

As a reminder, the IC50 is the concentration needed to halve the response being measured. Broadly, the GI50 is the concentration that inhibits growth by half.
